Data published in EP2481744A1, “Aromatic bis-phosphoramidate additives as flame retardants for polymers” (EMPA Eidgenössische Materialprüfungs- und Forschungsanstalt, priority 2011, dated 2012).
≈ marks a conversion by molar mass, not a printed value. Read-outs that look alike come from different tables or passages of the source.

Columns and labels:
[1] = deionized water, 16 h
[2] = Solubility in deionized water (shaking flask, phosphorus content by ICP-OES); details: 0.5 gm in 50 ml deionized water, 21 °C, 16 hrs

Solubility [2] | SMILES | Solubility [1]
 | CCOP(=O)(Nc1ccc(NP(=O)(OCC)OCC)cc1)OCC [p-PAPTEE, Phosphoramidic acid, 1,4-phenylenebis-, tetraethyl ester] | 0.047 mg/mL (≈ 124 µM)
0.056 mg/mL (≈ 128 µM) | CC(C)OP(=O)(Nc1ccc(NP(=O)(OC(C)C)OC(C)C)cc1)OC(C)C [p-PAPTiPE, Phosphoramidic acid, 1,4-phenylenebis-, tetra isopropyl ester] | 
